PMC9226124, “Macrocycle-stabilization of its interaction with 14-3-3 increases plasma membrane localization and activity of CFTR” (Nature Communications, 2022)
Several values for one entry are separate records, joined by “and”; a condition that tells them apart may be missing. Equal values may be shown once.

Columns and labels:
[1] = molecular target: T1, 14-3-3β/CFTRpS753pS768 complex (Homo sapiens, UniProt P13569+P31946); experiment: Dose-response fluorescence polarization (FP) assay, compound titration; format: binding; details: for FP signal: With 14-3-3
T1 construct: His6 (cleaved yes); made in house; peptide synthetic
Outline: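 Compounds were titrated in two-fold dilutions against 10 μM 14-3-3β and FITC-CFTR pS753pS768 peptide (100 nM or 10 nM). Buffer: 10 mM HEPES pH 7.4, 150 mM NaCl, 0.1% Tween20, 1 mg/mL BSA. Polarization was read at ex 485/em 535 nm, and EC50 was derived from a four-parameter variable-slope fit.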

[2] = molecular target: T1, 14-3-3β/CFTRpS753pS768 complex; experiment: FP assay, 14-3-3β titration at constant compound concentration (apparent KD); format: binding; details: for FP signal, 14-3-3β titration: replicates

T1 sequence (P31946 whole entry): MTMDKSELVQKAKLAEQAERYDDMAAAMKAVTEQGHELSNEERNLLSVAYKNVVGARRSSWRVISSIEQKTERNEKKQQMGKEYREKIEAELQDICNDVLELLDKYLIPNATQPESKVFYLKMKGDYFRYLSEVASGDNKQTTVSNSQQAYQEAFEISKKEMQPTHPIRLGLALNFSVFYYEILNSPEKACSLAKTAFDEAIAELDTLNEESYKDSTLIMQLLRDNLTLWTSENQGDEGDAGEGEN
T1 sequence (P13569 747-774 limits assumed): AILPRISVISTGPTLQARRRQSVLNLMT

N=C(N)NCCCC1NC(=O)C(CCC(N)=O)NC(=O)C(CCCNC(=N)N)NC(=O)C2Cc3ccccc3CN2Cc2cccc(c2)-c2ccccc2CNC1=O (stereo not shown) [CY007493]
EC50 ([1]; 14-3-3β 10 μM, labeled CFTRpS753pS768 100 nM, read-out: EC50): 637 µM
FP signal ([1]; compound 324.2 pM): 2
FP signal ([1]; compound 648.5 pM): 1
FP signal ([1]; compound 1.297e-9 M): 2
FP signal ([1]; compound 2.59399e-9 M): 3
FP signal ([1]; compound 5.18799e-9 M): 3
FP signal ([1]; compound 1.0376e-8 M): 3
FP signal ([1]; compound 2.0752e-8 M): 3
FP signal ([1]; compound 4.15039e-8 M): 3
FP signal ([1]; compound 8.30078e-8 M): 2
FP signal ([1]; compound 1.66016e-7 M): 5
FP signal ([1]; compound 3.32031e-7 M): 4
FP signal ([1]; compound 6.64062e-7 M): 3
FP signal ([1]; compound 1.32813e-6 M): 4
FP signal ([1]; compound 2.65625e-6 M): 5
FP signal ([1]; compound 5.3125e-6 M): 6
FP signal ([1]; compound 1.0625e-5 M): 4
FP signal ([1]; compound 2.125e-5 M): 10
FP signal ([1]; compound 4.25e-5 M): 18
FP signal ([1]; compound 8.5e-5 M): 37
FP signal ([1]; compound 0.00034 M): 117
FP signal ([1]; compound 0.00068 M): 184
FP signal ([1]; compound […]): 71
FP signal, 14-3-3β titration ([2]; 14-3-3β 1.90735e-9 M, FC-A + CY compound): 2 and 4 and 0
FP signal, 14-3-3β titration ([2]; 14-3-3β 1.90735e-9 M, compound 100 μM): -2
FP signal, 14-3-3β titration ([2]; 14-3-3β 3.8147e-9 M, FC-A + CY compound): 2 and 1 and -1
FP signal, 14-3-3β titration ([2]; 14-3-3β 3.8147e-9 M, compound 100 μM): 2 and 3 and 1
FP signal, 14-3-3β titration ([2]; 14-3-3β 7.62939e-9 M, FC-A + CY compound): 2 and 1 and 0
FP signal, 14-3-3β titration ([2]; 14-3-3β 7.62939e-9 M, compound 100 μM): 1 (2×) and 4
FP signal, 14-3-3β titration ([2]; 14-3-3β 1.52588e-8 M, FC-A + CY compound): 7 and 4 and 6
FP signal, 14-3-3β titration ([2]; 14-3-3β 1.52588e-8 M, compound 100 μM): 5 (2×) and 3
FP signal, 14-3-3β titration ([2]; 14-3-3β 3.05176e-8 M, FC-A + CY compound): 3 and 4 and 5
FP signal, 14-3-3β titration ([2]; 14-3-3β 3.05176e-8 M, compound 100 μM): 3 and 1 (2×)
FP signal, 14-3-3β titration ([2]; 14-3-3β 6.10352e-8 M, FC-A + CY compound): 6 and 9 (2×)
FP signal, 14-3-3β titration ([2]; 14-3-3β 6.10352e-8 M, compound 100 μM): 5 and 2 (2×)
FP signal, 14-3-3β titration ([2]; 14-3-3β 1.2207e-7 M, FC-A + CY compound): 10 and 5 and 8
FP signal, 14-3-3β titration ([2]; 14-3-3β 1.2207e-7 M, compound 100 μM): 3 and 6 and 2
FP signal, 14-3-3β titration ([2]; 14-3-3β 2.44141e-7 M, FC-A + CY compound): 16 and 15 and 11
FP signal, 14-3-3β titration ([2]; 14-3-3β 2.44141e-7 M, compound 100 μM): 7 and 3 and 1
FP signal, 14-3-3β titration ([2]; 14-3-3β 4.88281e-7 M, FC-A + CY compound): 18 and 25 and 20
FP signal, 14-3-3β titration ([2]; 14-3-3β 4.88281e-7 M, compound 100 μM): 9 and 4 (2×)
FP signal, 14-3-3β titration ([2]; 14-3-3β 9.76563e-7 M, FC-A + CY compound): 36 and 40 and 38
FP signal, 14-3-3β titration ([2]; 14-3-3β 9.76563e-7 M, compound 100 μM): 9 and 11 and 10
FP signal, 14-3-3β titration ([2]; 14-3-3β 1.95313e-6 M, FC-A + CY compound): 52 and 57 and 55
FP signal, 14-3-3β titration ([2]; 14-3-3β 1.95313e-6 M, compound 100 μM): 11 (2×) and 13
FP signal, 14-3-3β titration ([2]; 14-3-3β 3.90625e-6 M, FC-A + CY compound): 75 and 77 and 73
FP signal, 14-3-3β titration ([2]; 14-3-3β 3.90625e-6 M, compound 100 μM): 25 and 27 and 24
FP signal, 14-3-3β titration ([2]; 14-3-3β 7.8125e-6 M, FC-A + CY compound): 105 (2×) and 102
FP signal, 14-3-3β titration ([2]; 14-3-3β 7.8125e-6 M, compound 100 μM): 44 and 43 and 34
FP signal, 14-3-3β titration ([2]; 14-3-3β 1.5625e-5 M, FC-A + CY compound): 123 and 125 and 121
FP signal, 14-3-3β titration ([2]; 14-3-3β 1.5625e-5 M, compound 100 μM): 59 and 58 and 51
FP signal, 14-3-3β titration ([2]; 14-3-3β 3.125e-5 M, FC-A + CY compound): 141 (2×) and 139
FP signal, 14-3-3β titration ([2]; 14-3-3β 3.125e-5 M, compound 100 μM): 76 (2×) and 79
FP signal, 14-3-3β titration ([2]; 14-3-3β 6.25e-5 M, FC-A + CY compound): 152 and 151 and 156
FP signal, 14-3-3β titration ([2]; 14-3-3β 6.25e-5 M, compound 100 μM): 97 (2×) and 95
FP signal, 14-3-3β titration ([2]; 14-3-3β 0.000125 M, FC-A + CY compound): 161 and 159 and 162
FP signal, 14-3-3β titration ([2]; 14-3-3β 0.000125 M, compound 100 μM): 113 and 114 and 116
Fluorescence polarization signal, 14-3-3β titration ([2]; CY compound (100 μM), 14-3-3β concentration 0.00025 M): 132 and 131 and 127
Fluorescence polarization signal, 14-3-3β titration ([2]; CY compound (100 μM), 14-3-3β concentration 0.0005 M): 146 and 152
Fluorescence polarization signal, 14-3-3β titration ([2]; FC-A + CY compound, 14-3-3β concentration 0.00025 M): 166 and 162
Fluorescence polarization signal, 14-3-3β titration ([2]; FC-A + CY compound, 14-3-3β concentration 0.0005 M): 175 and 173 and 177
